Measured values as given in PMC6979384, “Characterization of the plant homeodomain (PHD) reader family for their histone tail interactions” (Epigenetics & Chromatin, 2020).

Assays:
Assay in all cases: Histone peptide microarray
Assay type in all cases: binding, human
PHRF1 (RP) = details: sheet "Array Heatmap"; GST-tagged PHRF1 (RP); arrays performed twice, total replicate number n = 4
Procedure, shortened: (§1)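 A peptide microarray holding 293 synthetic histone peptides with individual or combinatorial modifications was probed with each GST-PHD protein at 0.5 μM. Values represent mean intensity (±SD) from four replicates.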

ING4 = details: sheet "Array Heatmap"; GST-tagged ING4; arrays performed twice, total replicate number n = 4
Procedure, shortened: as §1

MLL5 = details: sheet "Array Heatmap"; GST-tagged MLL5; arrays performed twice, total replicate number n = 4
Procedure, shortened: as §1

DIDO1 = details: sheet "Array Heatmap"; GST-tagged DIDO1; arrays performed twice, total replicate number n = 4
Procedure, shortened: as §1

PHF23 = details: sheet "Array Heatmap"; GST-tagged PHF23; arrays performed twice, total replicate number n = 4
Procedure, shortened: as §1

KDM5A (1) = details: sheet "Array Heatmap"; GST-tagged KDM5A (1); arrays performed twice, total replicate number n = 4
Procedure, shortened: as §1

RAG2 = details: sheet "Array Heatmap"; GST-tagged RAG2; arrays performed twice, total replicate number n = 4
Procedure, shortened: as §1

CHD5 (PCC) = details: sheet "Array Heatmap"; GST-tagged CHD5 (PCC); arrays performed twice, total replicate number n = 4
Procedure, shortened: as §1

KDM4C (TTP) = details: sheet "Array Heatmap"; GST-tagged KDM4C (TTP); arrays performed twice, total replicate number n = 4
Procedure, shortened: as §1

TRIM66 (PB) = details: sheet "Array Heatmap"; GST-tagged TRIM66 (PB); arrays performed twice, total replicate number n = 4
Procedure, shortened: as §1

BAZ2B = details: sheet "Array Heatmap"; GST-tagged BAZ2B; arrays performed twice, total replicate number n = 4
Procedure, shortened: as §1

KDM7A = details: sheet "Array Heatmap"; GST-tagged KDM7A; arrays performed twice, total replicate number n = 4
Procedure, shortened: as §1

PHF21A = details: sheet "Array Heatmap"; GST-tagged PHF21A; arrays performed twice, total replicate number n = 4
Procedure, shortened: as §1

PHF13 = details: sheet "Array Heatmap"; GST-tagged PHF13; arrays performed twice, total replicate number n = 4
Procedure, shortened: as §1

TAF3 = details: sheet "Array Heatmap"; GST-tagged TAF3; arrays performed twice, total replicate number n = 4
Procedure, shortened: as §1

ING1 = details: sheet "Array Heatmap"; GST-tagged ING1; arrays performed twice, total replicate number n = 4
Procedure, shortened: as §1

PHF2 = details: sheet "Array Heatmap"; GST-tagged PHF2; arrays performed twice, total replicate number n = 4
Procedure, shortened: as §1

ING2 = details: sheet "Array Heatmap"; GST-tagged ING2; arrays performed twice, total replicate number n = 4
Procedure, shortened: as §1

SP140L = details: sheet "Array Heatmap"; GST-tagged SP140L; arrays performed twice, total replicate number n = 4
Procedure, shortened: as §1

CHD4 (PPCC) = details: sheet "Array Heatmap"; GST-tagged CHD4 (PPCC); arrays performed twice, total replicate number n = 4
Procedure, shortened: as §1

AIRE (PP) = details: sheet "Array Heatmap"; GST-tagged AIRE (PP); arrays performed twice, total replicate number n = 4
Procedure, shortened: as §1

CHD5 (PPCC) = details: sheet "Array Heatmap"; GST-tagged CHD5 (PPCC); arrays performed twice, total replicate number n = 4
Procedure, shortened: as §1

ING3 = details: sheet "Array Heatmap"; GST-tagged ING3; arrays performed twice, total replicate number n = 4
Procedure, shortened: as §1

KDM5B (3) = details: sheet "Array Heatmap"; GST-tagged KDM5B (3); arrays performed twice, total replicate number n = 4
Procedure, shortened: as §1

DPF2 (PPC2W2) = details: sheet "Array Heatmap"; GST-tagged DPF2 (PPC2W2); arrays performed twice, total replicate number n = 4
Procedure, shortened: as §1

ING5 = details: sheet "Array Heatmap"; GST-tagged ING5; arrays performed twice, total replicate number n = 4
Procedure, shortened: as §1

BPTF (PB) = details: sheet "Array Heatmap"; GST-tagged BPTF (PB); arrays performed twice, total replicate number n = 4
Procedure, shortened: as §1

MORC3 (CW) = details: sheet "Array Heatmap"; GST-tagged MORC3 (CW); arrays performed twice, total replicate number n = 4
Procedure, shortened: as §1

PHF8 = details: sheet "Array Heatmap"; GST-tagged PHF8; arrays performed twice, total replicate number n = 4
Procedure, shortened: as §1

KDM5A (3) = details: sheet "Array Heatmap"; GST-tagged KDM5A (3); arrays performed twice, total replicate number n = 4
Procedure, shortened: as §1

KDM5B (1) = details: sheet "Array Heatmap"; GST-tagged KDM5B (1); arrays performed twice, total replicate number n = 4
Procedure, shortened: as §1

Substance	Array Heatmap signal, PHRF1 (RP) (PHRF1 (RP))	Array Heatmap signal, ING4 (ING4)	Array Heatmap signal, MLL5 (MLL5)	Array Heatmap signal, DIDO1 (DIDO1)	Array Heatmap signal, PHF23 (PHF23)	Array Heatmap signal, KDM5A (1) (KDM5A (1))	Array Heatmap signal, RAG2 (RAG2)	Array Heatmap signal, CHD5 (PCC) (CHD5 (PCC))	Array Heatmap signal, KDM4C (TTP) (KDM4C (TTP))	Array Heatmap signal, TRIM66 (PB) (TRIM66 (PB))	Array Heatmap signal, BAZ2B (BAZ2B)	Array Heatmap signal, KDM7A (KDM7A)	Array Heatmap signal, PHF21A (PHF21A)	Array Heatmap signal, PHF13 (PHF13)	Array Heatmap signal, TAF3 (TAF3)	Array Heatmap signal, ING1 (ING1)	Array Heatmap signal, PHF2 (PHF2)	Array Heatmap signal, ING2 (ING2)	Array Heatmap signal, SP140L (SP140L)	Array Heatmap signal, CHD4 (PPCC) (CHD4 (PPCC))	further results
H3.3K27me1: H3.3 15-34 [Peptide H3.3K27me1]	0.3762	0.4785	0.5371	0.5418	0.4768	0.5094	0.2345	0.7906	0.5409	0.534	0.5147	0.4745	0.4715	0.6089	0.2716	0.4683	0.3646	0.5862	0.3662	0.5655	Array Heatmap signal, AIRE (PP) (AIRE (PP)): 0.5413; Array Heatmap signal, CHD5 (PPCC) (CHD5 (PPCC)): 0.5646; Array Heatmap signal, ING3 (ING3): 0.4473; Array Heatmap signal, KDM5B (3) (KDM5B (3)): 0.4744; Array Heatmap signal, DPF2 (PPC2W2) (DPF2 (PPC2W2)): 0.6219; Array Heatmap signal, ING5 (ING5): 0.3774; Array Heatmap signal, BPTF (PB) (BPTF (PB)): 0.3434; Array Heatmap signal, MORC3 (CW) (MORC3 (CW)): 0.3133; Array Heatmap signal, PHF8 (PHF8): 0.3072; Array Heatmap signal, KDM5A (3) (KDM5A (3)): 0.366; Array Heatmap signal, KDM5B (1) (KDM5B (1)): 0.6832
H3.3K27me2 + S28p: H3.3 15-34	0.4333	0.4488	0.548	0.6639	0.5303	0.4568	0.2608	0.7282	0.4645	0.5871	0.4685	0.3322	0.4472	0.6326	0.2725	0.5375	0.5406	0.6211	0.3521	0.6277	Array Heatmap signal, AIRE (PP) (AIRE (PP)): 0.3996; Array Heatmap signal, CHD5 (PPCC) (CHD5 (PPCC)): 0.5567; Array Heatmap signal, ING3 (ING3): 0.4796; Array Heatmap signal, KDM5B (3) (KDM5B (3)): 0.4734; Array Heatmap signal, DPF2 (PPC2W2) (DPF2 (PPC2W2)): 0.6352; Array Heatmap signal, ING5 (ING5): 0.3515; Array Heatmap signal, BPTF (PB) (BPTF (PB)): 0.3515; Array Heatmap signal, MORC3 (CW) (MORC3 (CW)): 0.3408; Array Heatmap signal, PHF8 (PHF8): 0.3445; Array Heatmap signal, KDM5A (3) (KDM5A (3)): 0.4997; Array Heatmap signal, KDM5B (1) (KDM5B (1)): 0.6269
H3.3K27me2: H3.3 15-34 [Peptide H3.3K27me2]	0.4654	0.4872	0.5397	0.6851	0.5513	0.5224	0.2646	0.8298	0.5464	0.5739	0.4966	0.388	0.5329	0.6291	0.2764	0.5537	0.504	0.5964	0.3774	0.613	Array Heatmap signal, AIRE (PP) (AIRE (PP)): 0.5737; Array Heatmap signal, CHD5 (PPCC) (CHD5 (PPCC)): 0.607; Array Heatmap signal, ING3 (ING3): 0.5037; Array Heatmap signal, KDM5B (3) (KDM5B (3)): 0.5196; Array Heatmap signal, DPF2 (PPC2W2) (DPF2 (PPC2W2)): 0.6895; Array Heatmap signal, ING5 (ING5): 0.3925; Array Heatmap signal, BPTF (PB) (BPTF (PB)): 0.3599; Array Heatmap signal, MORC3 (CW) (MORC3 (CW)): 0.404; Array Heatmap signal, PHF8 (PHF8): 0.3923; Array Heatmap signal, KDM5A (3) (KDM5A (3)): 0.4717; Array Heatmap signal, KDM5B (1) (KDM5B (1)): 0.6552
